Laboratory results: ChEMBL document CHEMBL2062380, “Discovery of a novel pyrrole derivative 1-[5-(2-fluorophenyl)-1-(pyridin-3-ylsulfonyl)-1H-pyrrol-3-yl]-N-methylmethanamine fumarate (TAK-438) as a potassium-competitive acid blocker (P-CAB)” (J Med Chem, 2012)
Structures can show the parent of a compound that is named as a salt. The source made the active and inactive calls. No cut-off for these calls is given here.

How the values were obtained:
[1] = Lipophilicity, log D of compound at pH 7.4; type: physicochemical; details: buffer
[2] = Inhibition of swine H+/K+-ATPase after 30 mins by colorimetry; design: species or system Sus scrofa
[3] = test system: Rattus norvegicus; test: Inhibition of histamine-induced gastric acid secretion in pylorus-ligated Sprague Dawley rat at 1 mg/kg, iv administered 3 mins prior to histamine challenge measured after 3 hrs; type: functional; details: Stomach
[4] = test system: Rattus norvegicus; test: Inhibition of histamine-induced gastric acid secretion in po dosed pylorus-ligated Sprague-Dawley rat measured after 3 hrs post histamine challenge; type: functional, organism-based; details: Stomach
[5] = test system: Rattus norvegicus; test: Complete inhibition of histamine-induced gastric acid secretion in pylorus-ligated Sprague Dawley rat at 4 mg/kg, po measured after 3 hrs post histamine challenge; type: functional, organism-based; design: dose 4 mg/kg; details: Stomach
[6] = test system: Canis familiaris; test: Inhibition histamine-induced gastric acid secretion in Heidenhain-pouch dog at 1 mg/kg, po administered 1 day post histamine challenge measured for 3 consecutive 30 mins time period after compound dosing; type: functional, organism-based; design: dose 1 mg/kg; details: Canis lupus familiaris, Stomach
[7] = test system: Canis familiaris; test: Inhibition histamine-induced gastric acid secretion in Heidenhain-pouch dog at 1 mg/kg, po measured after 2 days; type: functional, organism-based; design: dose 1 mg/kg; details: Canis lupus familiaris, Stomach
[8] = test system: Rattus norvegicus; test: Inhibition of histamine-induced gastric acid secretion in pylorus-ligated Sprague-Dawley rat at 8 mg/kg, po measured after 3 hrs post histamine challenge; type: functional, organism-based; design: dose 8 mg/kg; details: Stomach
[9] = test system: Canis familiaris; test: Inhibition histamine-induced gastric acid secretion in Heidenhain-pouch dog at 1 mg/kg, po administered 1 tp 48 hrs prior histamine challenge measured for 3 consecutive 30 mins time period after compound dosing; type: functional, organism-based; design: dose 1 mg/kg; details: Canis lupus familiaris, Stomach

Row | Structure (SMILES) | logD [1] | IC50 [2] [nM] | inhibition in vivo at 1 mg/kg [3] [%] | also measured
1 | CNCc1cc(-c2ccccc2)n(S(=O)(=O)c2ccc(OC)cc2)c1 | 1.5 | 30 | 95 | 
2 | CNCc1cc(-c2ccccc2CO)n(S(=O)(=O)c2cccnc2)c1 | -0.3 | 2200 |  | 
3 | CNCc1cc(-c2ccccc2)n(S(=O)(=O)c2ccc(C)nc2)c1 | 1 | 34 | 83 | 
4 | CNCc1cc(-c2ccc(F)cc2)n(S(=O)(=O)c2cccnc2)c1 | 1 | 46 | 85 | 
5 | CNCc1cc(-c2ccccc2)n(S(=O)(=O)c2ccsc2)c1 | 1.1 | 16 | 55 | 
6 | CNCc1cc(-c2ccccc2)n(S(=O)(=O)c2ccc(OC)nc2)c1 | 1.7 | 13 | 95 | 
7 | CNCc1cc(-c2ccccc2)n(S(=O)(=O)c2cccc(S(C)(=O)=O)c2)c1 |  | 78 |  | 
8 | CNCc1cc(-c2ccccc2F)n(S(=O)(=O)c2cccnc2)c1 [VONOPRAZAN FUMARATE] | 0.4 | 19 | 98 | inhibition [4]: Dose-dependent effect; inhibition [5]: Active; inhibition [6]: Active; inhibition [7]: Active
9 | CNCc1cc(-c2ccccc2C)n(S(=O)(=O)c2cccnc2)c1 | 1 | 46 | 95 | 
10 | CNCc1cc(-c2cccc(F)c2)n(S(=O)(=O)c2cccnc2)c1 | 1 | 20 | 92 | 
11 | CNCc1cc(-c2ccccc2Cl)n(S(=O)(=O)c2cccnc2)c1 | 0.7 | 17 | 97 | 
12 | CNCc1cc(-c2ccccc2C(F)(F)F)n(S(=O)(=O)c2cccnc2)c1 | 0.8 | 75 | 92 | 
13 | Cc1c(OCC(F)(F)F)ccnc1C[S+]([O-])c1nc2ccccc2[nH]1 (stereo not drawn) |  |  |  | inhibition [8]: inactive; inhibition [9]: Active
14 | CNCc1cc(-c2ccccc2C#N)n(S(=O)(=O)c2cccnc2)c1 | -0.2 | 230 | 68 | 
15 | CNCc1cc(-c2ccccc2)n(S(=O)(=O)c2cccc(OC)c2)c1 |  | 11 |  | 
16 | CNCc1cc(-c2ccccc2)n(S(=O)(=O)c2cccs2)c1 | 1.2 | 51 | 69 | 
17 | CNCc1cc(-c2ccccc2)n(S(=O)(=O)c2ccc(C#N)nc2)c1 | 1.4 | 110 | 17 | 
18 | CNCc1cc(-c2ccccc2)n(S(=O)(=O)c2cccnc2)c1 | 0.7 | 16 | 85 | 
19 | CNCc1cc(-c2ccccc2)n(S(=O)(=O)c2ccccn2)c1 |  | 170 |  | 
